Measurements as given in ChEMBL document CHEMBL1629568 (Antimicrob Agents Chemother, 2009).
Converted amounts (≈) assume the structure as drawn.

What was measured:
[1] = system: Nocardia brasiliensis; assay: Antimicrobial activity against Nocardia brasiliensis HUJEG-1 by broth microdilution method; type: functional
[2] = Drug level in human plasma at 400 mg/day after 8 hrs; type: ADME, cell-free; settings: read-out: Drug uptake
[3] = Cmax in Nocardia brasiliensis HUJEG-1 infected BALB/c mouse at 25 mg/kg, sc every 8 hrs by HPLC; type: ADME, organism-based; design: dose 25 mg/kg, route subcutaneous; settings: in vivo

MIC [1] [µg/mL]	concentration at 8 h [2] [ng/mL]	Cmax [3] [ng/mL]	SMILES
0.25 (≈ 0.623 µM)	> 1000	4300	COc1c(N2C[C@@H]3CCCN[C@@H]3C2)c(F)cc2c(=O)c(C(=O)O)cn(C3CC3)c12 [MOXIFLOXACIN]
		2250	O=C(O)c1cn(C2CC2)c2cc(N3CCNCC3)c(F)cc2c1=O [CIPROFLOXACIN]
